{"source": "patent US12251449B2", "about": "“Synthetic multidomain peptide biomaterials that inhibit inducible nitric oxide synthase” (William Marsh Rice University, priority 2019, dated 2025)", "key": {"RAW 264.7 cells": {"system": "RAW 264.7 cells", "assay": "Live-dead viability of RAW 264.7 cells on MDP hydrogels", "format": "cell-based, mouse", "details": "RAW macrophages on 1 wt. % hydrogel, one to three days", "description": "(§1) Cell culture. For in vitro experiments, mouse RAW 264.7 cells (ATCC TIB-71) were grown in DMEM media supplemented with 10% Heat-Inactivated Fetal Bovine Serum (HI-FBS), L-glutamine, sodium pyruvate, and 1% penicillin-streptomycin. Cells were cultured at 37° C. with 5% CO2 and subcultured using scraping.\n(§2) For 2-D culture live-dead viability studies, peptide hydrogels were pipetted into 0.4 cm^2 wells of Lab-Tek 16 well glass chamber slides (Thermo Fischer, Rochester, NY). Gels were pipetted to produce 70 μL pucks with a thickness of 1.75 mm. The gels were carefully pipetted into the bottom of each well and tapped before shear recovery to create flat gel profiles. After pipetting, the samples were allowed to shear recover for 5-10 min before adding 200 μL cell media and 10,000 RAW 264.7 cells. For each experiment time point (days 1 and 3) separate slides with duplicate gels were created. The cell media was changed every 2 days, taking care to not disturb or dislodge the gel material.\n(§3) At each desired time point the following procedure was used to stain the cells for live-dead analysis. Live-dead staining solution was prepared in DPBS (Thermo Fisher Scientific, Rockford, IL) with 2 μM Calcein AM (Life Technologies), 4 μM Ethidium homodimer (Life Technologies), and 5 μg/mL Hoechst 33342 (BD Biosciences, San Jose, CA). Cell media was removed from the top of the hydrogel samples, which were then washed with PBS. Samples were then stained with 100 μL of prepared solution by incubating at 37° C. with 5% CO2 for 60 min while protected from light. After staining, the gels were removed from the glass chamber slides and placed in PBS before immediately imaging by confocal. Gels were analyzed by z-stack imaging using a Nikon A1 Confocal Microscope with a 40× water objective (405 nm blue channel laser, 488 nm green channel laser, 561 nm red channel laser). Image processing was done using NIS Elements, and Imaris Cell Counting software was used to quantify live-dead percentages."}, "[1]": {"assay": "Live-dead viability of RAW 264.7 cells on MDP hydrogels", "format": "cell-based, mouse", "details": "mouse, RAW 264.7 cells cultured on peptide hydrogel (2-D culture); RAW macrophages on 1 wt. % hydrogel, after three days; read-out: cell survival", "description": "as §1, §2, §3"}, "[2]": {"assay": "IgG release kinetics from hydrogels", "format": "physicochemical", "details": "compared with alginate and K2-MDP", "from_the_text": "Whether the drug-mimicking L-NIL-MDP hydrogel could effectively load and control the delivery of IgG compared to other biomaterials was investigated."}, "MOC1 tumors": {"system": "MOC1 tumors", "assay": "MOC orthotopic murine model of oral cancer (Example 9)", "details": "established 4-5 mm MOC1 tumors, single 30 μl intratumoral injection", "quoted_text": "MOC orthotopic murine model of oral cancer. MOC1 tumors were established by injecting 2×10^6 cells (70%:30% cells: Matrigel®Matrix) into the maxillary vestibule of the left oral cavity in C57BL/6J mice. […] Tumor growth was monitored by tumor size measurements (in diameter) taken at least two times per week using digital calipers to measure the longest dimension (single dimension). Data was then analyzed for Kaplan-Meier survival and tumor growth curves. […] Excessive tumor burden, defined as tumor diameter reaching 12 mm, tumor ulceration, or a weight loss of greater than 20% were factors that were considered for all endpoints in tumor growth and survival data.\nStatistical methods. Statistical analyses were performed using Prism 7.0 (GraphPad, San Diego, CA). Statistical analyses for Kaplan-Meier survival curves were performed using the Log-rank/Mantel-Cox test. Statistical significance for tumor growth curves was determined by a two-way ANOVA test followed by selected comparison using Tukey's multiple comparison tests with multiple comparison correction. All p values were two-sided and p values less than 0.05 were considered significant."}, "[3]": {"assay": "CDN drug release kinetics from hydrogels", "format": "physicochemical", "description": "Drug release kinetics. For release kinetics studies of CDN release from various hydrogel formulations, aliquots of CDN-loaded gel (30 μL each) were deposited into 96 well Falcon® flat bottom plates (Becton Dickinson Labware, Franklin Lakes, NJ). 30 μL gel was pipetted to generate a cylindrical puck in each well for each experiment. The pipetted gels were allowed to shear recover for approximately 5-10 min before adding 200 μL of the relevant buffer to the top of the gels (1× HBSS for all MDPs, 1× DPBS for collagen, Matrigel, 1× HBSS with 0.1 M CaCl2) for alginate, etc. according to the gelation requirements of the material). The addition of buffer was defined as t=0 for the beginning of release kinetics experiments. Table 1 summarizes the material conditions and preparation methods used for various comparative CDN delivery kinetics studies.\nA Nanodrop 2000C Spectrophotometer (Thermo Scientific) was used to measure drug release by UV absorbance at 259 nm for CDN ML RR-S2 CDA, using an extinction coefficient of 24,000 M^−1cm^−1 (259 nm). Absorbance measurements were obtained by removing […] from the top of the liquid buffers above the loaded gels, over time measuring the increase in absorbance. Over the course of the first 24 hours, release of CDN was measured usually every 1-2 hours and converted to total percent released, with additional measurements also made every 24 hours for up to a week to establish when equilibrium had been reached."}}, "note": "*1 amine or outer side, *2 acyl side, *3 side chain or, on linkers, in order; H or OH if unused. Where a SMILES comes first, the peptide text is derived from it. [ ]: non-standard residue; d: D form. X1 = CC(=N)NCCCC[C@H](N[*:1])C(=O)[*:2]"}
{"smiles": "CC(=N)NCCCC[C@H](NC(=O)[C@H](CCCCNC(C)=N)NC(=O)[C@H](CC(C)C)NC(=O)[C@H](CO)NC(=O)[C@H](CC(C)C)NC(=O)[C@H](CO)NC(=O)[C@H](CC(C)C)NC(=O)[C@H](CO)NC(=O)[C@H](CC(C)C)NC(=O)[C@H](CO)NC(=O)[C@H](CC(C)C)NC(=O)[C@H](CO)NC(=O)[C@H](CC(C)C)NC(=O)[C@H](CO)NC(=O)[C@H](CCCCNC(C)=N)NC(=O)[C@H](CCCCNC(C)=N)NC(C)=O)C(N)=O", "note": "[L-NIL-MDP] (Ac-[X1][X1]SLSLSLSLSLSL[X1][X1]-NH2)", "values": [{"measurement": "cell attachment, survival and proliferation (in words)", "setting": "RAW 264.7 cells", "result": "highest degrees of cell attachment and proliferation"}, {"measurement": "viability at 72 h, 1 wt. %", "setting": "[1]", "result": "~95", "unit": "%"}, {"measurement": "control of IgG release (in words)", "setting": "[2]", "result": "able to control the release of IgG more effectively"}, {"measurement": "median survival", "setting": "MOC1 tumors", "result": 44, "unit": "days"}, {"measurement": "CDN release profile (in words)", "setting": "[3]", "result": "comparable or even better controlled release"}]}
